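Following 48 hours of exposure in 96-well plates, responses at five concentrations were used to interpolate endpoints linearly. Abbreviation: GI50, concentration required for 50% inhibition of growth. TGI denotes the concentration required for complete inhibition of growth.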
Columns and labels:
Test in all cases: NCI anticancer screen, dose series, 48 h
HCT-15 colon = system: HCT-15 colon
OVCAR-4 ovarian = system: OVCAR-4 ovarian
SN12C renal = system: SN12C renal
OVCAR-3 ovarian = system: OVCAR-3 ovarian
SW-620 colon = system: SW-620 colon
BT-549 breast = system: BT-549 breast
OVCAR-8 ovarian = system: OVCAR-8 ovarian
SF-268 CNS = system: SF-268 CNS
MDA-MB-231 breast = system: MDA-MB-231 breast
A498 renal = system: A498 renal

## O=C1/C(=C/c2ccccc2)SC(=Nc2ccccc2)N1Nc1ccccc1
HCT-15 colon
  GI50: 5.1 µM
  TGI: > 100 µM
OVCAR-4 ovarian
  GI50: 7.96 µM
  TGI: > 100 µM
SN12C renal
  GI50: 5.48 µM
  TGI: 23.4 µM
OVCAR-3 ovarian
  GI50: 10.2 µM
  TGI: 91.2 µM
SW-620 colon
  GI50: 17.6 µM
  TGI: > 100 µM
BT-549 breast
  GI50: 6.51 µM
  TGI: 35.7 µM
OVCAR-8 ovarian
  GI50: 27.3 µM
  TGI: > 100 µM
SF-268 CNS
  GI50: 31.3 µM
  TGI: > 100 µM
MDA-MB-231 breast
  GI50: 18.7 µM
  TGI: > 100 µM

## N/N=C1\c2ccccc2C2/C(=N\N)c3ccccc3C12 (configuration not stated)
HCT-15 colon
  TGI: > 100 µM
OVCAR-4 ovarian
  TGI: > 100 µM
SN12C renal
  TGI: > 100 µM
OVCAR-3 ovarian
  TGI: > 100 µM
SW-620 colon
  TGI: > 100 µM
OVCAR-8 ovarian
  TGI: > 100 µM
SF-268 CNS
  TGI: > 100 µM

## CCOc1ccccc1NC(=O)CCc1nnc2s/c(=C\CCc3ccccc3)c(=O)n12
A498 renal
  TGI: > 100 µM
HCT-15 colon
  TGI: > 100 µM
OVCAR-4 ovarian
  TGI: > 100 µM
SN12C renal
  TGI: > 100 µM
OVCAR-3 ovarian
  TGI: > 100 µM
SW-620 colon
  TGI: > 100 µM
OVCAR-8 ovarian
  TGI: > 100 µM
SF-268 CNS
  TGI: > 100 µM

## Cc1ccc(NS(=O)(=O)c2cc(C(C)(C)C)ccc2OCCOCCOCCOc2ccc(C(C)(C)C)cc2S(=O)(=O)Nc2ccc(C)cc2)cc1
A498 renal
  TGI: > 100 µM
HCT-15 colon
  TGI: > 100 µM
OVCAR-4 ovarian
  TGI: > 100 µM
SN12C renal
  TGI: > 100 µM
OVCAR-3 ovarian
  TGI: > 100 µM
SW-620 colon
  TGI: > 100 µM
OVCAR-8 ovarian
  TGI: > 100 µM
SF-268 CNS
  TGI: > 100 µM

## O=S(=O)(NC(=S)Nc1ccccc1)c1ccc(N2N=C3c4ccccc4CC3C2c2cccs2)cc1 (configuration not stated)
HCT-15 colon
  GI50: 22.6 µM
  TGI: 63.5 µM
OVCAR-4 ovarian
  GI50: 69.8 µM
  TGI: > 100 µM
SN12C renal
  GI50: 21.4 µM
  TGI: 43.2 µM
OVCAR-3 ovarian
  GI50: 17.2 µM
  TGI: 46.9 µM
SW-620 colon
  GI50: 30 µM
  TGI: > 100 µM
BT-549 breast
  GI50: 24.6 µM
  TGI: 66.2 µM
OVCAR-8 ovarian
  GI50: 39 µM
  TGI: > 100 µM
SF-268 CNS
  GI50: 30.7 µM
  TGI: > 100 µM
MDA-MB-231 breast
  GI50: 24.8 µM
  TGI: 62.3 µM

## C=C1C(=O)O[C@H]2[C@H]1CC/C(COC(=O)C(=O)c1c[nH]c3ccc(OC)cc13)=C\CC[C@@]1(C)O[C@@H]21
HCT-15 colon
  GI50: 3.77 µM
  TGI: 7.82 µM
OVCAR-4 ovarian
  GI50: 6.93 µM
  TGI: 21.4 µM
SN12C renal
  GI50: 6.1 µM
  TGI: 12.2 µM
OVCAR-3 ovarian
  GI50: 1.87 µM
  TGI: 3.42 µM
SW-620 colon
  GI50: 4 µM
  TGI: 16.2 µM
BT-549 breast
  GI50: 1.82 µM
  TGI: 3.53 µM
OVCAR-8 ovarian
  GI50: 6.88 µM
  TGI: 19.4 µM
SF-268 CNS
  GI50: 6.75 µM
  TGI: 13 µM
MDA-MB-231 breast
  GI50: 6.27 µM
  TGI: 12 µM

From PubChem BioAssay (NCI)
